Reference: patent publication US6525001B1, “Substituted pyrimidine and pyridine herbicides” (Mid-American Commercialization Corporation, priority 1997, dated 2003)

Columns and labels:
Format in all cases: in vivo
Parameters in all cases: key: 0 is no effect; 10 is complete control
[1] = test system: smallflower flatsedge (Cyperus difformis); experiment: Test B flood test
Outline: (§1)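 Plants were grown to the 2-leaf stage before treatment with test chemical, then held in a greenhouse for twelve to sixteen days. Injury was visually rated against untreated controls on a 0–10 scale, where 0 is no effect and 10 is complete control.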

[2] = test system: bamyardgrass (Echinochloa crus-galli); experiment: Test B flood test
Outline: as §1

rice (Oryza sativa) = experiment: Test B flood test
Outline: as §1

[3] = test system: duck salad (Heteranthera limosa); experiment: Test B flood test
Outline: as §1

[4] = test system: cocklebur (Xanthium strumarium); experiment: Test B pre-/postemergence
Description: (§2) Seeds of bedstraw (Galium aparine), blackgrass (Alopecurus myosuroides), broadleaf signalgrass (Brachiaria decumbens), cocklebur (Xanthium strumarium), corn (Zea mays), crabgrass (Digitaria sanguinalis), giant foxtail (Setaria faberii), lambsquarters (Chenopodium album), momingglory (Ipomoea hederacea), pigweed (Amaranthus retroflexus), rape (Brassica napus), soybean (Glycine max), sugar beet (Beta vulgaris), velvetleaf (Abutilon theophrasti), wheat (Triticum aestivum), wild oat (Avena fatua) and purple nutsedge (Cyperus rotundus) tubers were planted and treated preemergence with test chemicals formulated in a non-phytotoxic solvent mixture which included a surfactant.
(§3) At the same time, these crop and weed species were also treated with postemergence applications of test chemicals formulated in the same manner. Plants ranged in height from 2 to 18 cm (1- to 4-leaf stage) for postemergence treatments. Plant species in the flood test consisted of rice (Oryza sativa), smallflower flatsedge (Cyperus difformis), duck salad (Heteranthera limosa) and bamyardgrass (Echinochloa crus-galli) grown to the 2-leaf stage for testing. Treated plants and controls were maintained in a greenhouse for twelve to sixteen days, after which all species were compared to controls and visually evaluated. Plant response ratings, summarized in Table B, are based on a scale of 0 to 10 where 0 is no effect and 10 is complete control. A dash (−) response means no test result.

[5] = test system: wheat (Triticum aestivum); experiment: Test B pre-/postemergence
Description: as §2, §3

[6] = test system: blackgrass (Alopecurus myosuroides); experiment: Test B pre-/postemergence
Description: as §2, §3

soybean (Glycine max) = experiment: Test B pre-/postemergence
Description: as §2, §3

[7] = test system: broadleaf signalgrass (Brachiaria decumbens); experiment: Test B pre-/postemergence
Description: as §2, §3

corn (Zea mays) = experiment: Test B pre-/postemergence
Description: as §2, §3

[8] = test system: velvetleaf (Abutilon theophrasti); experiment: Test B pre-/postemergence
Description: as §2, §3

[9] = test system: purple nutsedge (Cyperus rotundus); experiment: Test B pre-/postemergence
Description: as §2, §3

rape (Brassica napus) = experiment: Test B pre-/postemergence
Description: as §2, §3

[10] = test system: crabgrass (Digitaria sanguinalis); experiment: Test B pre-/postemergence
Description: as §2, §3

[11] = test system: giant foxtail (Setaria faberii); experiment: Test B pre-/postemergence
Description: as §2, §3

wild oat (Avena fatua) = experiment: Test B pre-/postemergence
Description: as §2, §3

[12] = test system: pigweed (Amaranthus retroflexus); experiment: Test B pre-/postemergence
Description: as §2, §3

[13] = test system: momingglory (Ipomoea hederacea); experiment: Test B pre-/postemergence
Description: as §2, §3

[14] = test system: bedstraw (Galium aparine); experiment: Test B pre-/postemergence
Description: as §2, §3

[15] = test system: sugar beet (Beta vulgaris); experiment: Test B pre-/postemergence
Description: as §2, §3

[16] = Rate 62 g/ha, Postemergence (flood test)
[17] = Rate 125 g/ha, Postemergence, flood test
[18] = Rate 250 g/ha, Postemergence (flood test species)

## Cc1cnc(-c2ccc(C(F)(F)F)cc2)nc1C(C)c1cccc(C(F)(F)F)c1 (racemic) [Compound 19]
[1]; [16]
  Plant response rating, S. Flatsedge: 0
[1]; [17]
  Plant response rating, S. Flatsedge: 2
[1]; [18]
  Plant response rating, S. Flatsedge: 6
[2]; [16]
  Plant response rating, Barnyardgrass: 0
[2]; [17]
  Plant response rating, Barnyardgrass: 2
[2]; [18]
  Plant response rating, Barnyardgrass: 3
Rice (Oryza sativa); [16]
  Plant response rating, Rice: 0
Rice (Oryza sativa); [17]
  Plant response rating, Rice: 0
Rice (Oryza sativa); [18]
  Plant response rating, Rice: 2
[3]; [16]
  Plant response rating, Ducksalad: 0
[3]; [17]
  Plant response rating, Ducksalad: 2
[3]; [18]
  Plant response rating, Ducksalad: 7
[4]; Rate 62 g/ha, Postemergence
  Plant response rating, Cocklebur: 2
[4]; Rate 62 g/ha, Preemergence
  Cocklebur plant response rating: 0
[4]; Rate 125 g/ha, Postemergence
  Plant response rating, Cocklebur: 3
[4]; Rate 250 g/ha, Postemergence
  Plant response rating, Cocklebur: 3
[4]; Rate 250 g/ha, Preemergence
  Plant response rating, Cocklebur: 0
[5]; Rate 62 g/ha, Postemergence
  Plant response rating, Wheat: 0
[5]; Rate 62 g/ha, Preemergence
  Wheat plant response rating: 0
[5]; Rate 125 g/ha, Postemergence
  Plant response rating, Wheat: 0
[5]; Rate 125 g/ha, Preemergence
  Wheat plant response rating: 0
[5]; Rate 250 g/ha, Postemergence
  Plant response rating, Wheat: 0
[5]; Rate 250 g/ha, Preemergence
  Plant response rating, Wheat: 0
[6]; Rate 62 g/ha, Postemergence
  Plant response rating, Blackgrass: 1
[6]; Rate 62 g/ha, Preemergence
  Blackgrass plant response rating: 0
[6]; Rate 125 g/ha, Postemergence
  Plant response rating, Blackgrass: 1
[6]; Rate 125 g/ha, Preemergence
  Blackgrass plant response rating: 0
[6]; Rate 250 g/ha, Postemergence
  Plant response rating, Blackgrass: 1
[6]; Rate 250 g/ha, Preemergence
  Plant response rating, Blackgrass: 0
Soybean (Glycine max); Rate 62 g/ha, Postemergence
  Plant response rating, Soybean: 2
Soybean (Glycine max); Rate 62 g/ha, Preemergence
  Soybean plant response rating: 0
Soybean (Glycine max); Rate 125 g/ha, Postemergence
  Plant response rating, Soybean: 3
Soybean (Glycine max); Rate 125 g/ha, Preemergence
  Soybean plant response rating: 0
Soybean (Glycine max); Rate 250 g/ha, Postemergence
  Plant response rating, Soybean: 4
Soybean (Glycine max); Rate 250 g/ha, Preemergence
  Plant response rating, Soybean: 0
[7]; Rate 62 g/ha, Postemergence
  Plant response rating, B. signalgrass: 1
[7]; Rate 62 g/ha, Preemergence
  B. signalgrass plant response rating: 0
[7]; Rate 125 g/ha, Postemergence
  Plant response rating, B. signalgrass: 2
[7]; Rate 125 g/ha, Preemergence
  B. signalgrass plant response rating: 0
[7]; Rate 250 g/ha, Postemergence
  Plant response rating, B. signalgrass: 2
[7]; Rate 250 g/ha, Preemergence
  Plant response rating, B. signalgrass: 0
Corn (Zea mays); Rate 62 g/ha, Postemergence
  Plant response rating, Corn: 1
Corn (Zea mays); Rate 62 g/ha, Preemergence
  Corn plant response rating: 0
Corn (Zea mays); Rate 125 g/ha, Postemergence
  Plant response rating, Corn: 2
Corn (Zea mays); Rate 125 g/ha, Preemergence
  Corn plant response rating: 0
Corn (Zea mays); Rate 250 g/ha, Postemergence
  Plant response rating, Corn: 3
Corn (Zea mays); Rate 250 g/ha, Preemergence
  Plant response rating, Corn: 0
[8]; Rate 62 g/ha, Postemergence
  Plant response rating, Velvetleaf: 1
[8]; Rate 62 g/ha, Preemergence
  Velvetleaf plant response rating: 0
[8]; Rate 125 g/ha, Postemergence
  Plant response rating, Velvetleaf: 2
[8]; Rate 125 g/ha, Preemergence
  Velvetleaf plant response rating: 0
[8]; Rate 250 g/ha, Postemergence
  Plant response rating, Velvetleaf: 2
[8]; Rate 250 g/ha, Preemergence
  Plant response rating, Velvetleaf: 0
[9]; Rate 62 g/ha, Postemergence
  Plant response rating, Nutsedge: 0
[9]; Rate 62 g/ha, Preemergence
  Nutsedge plant response rating: 0
[9]; Rate 125 g/ha, Postemergence
  Plant response rating, Nutsedge: 0
[9]; Rate 125 g/ha, Preemergence
  Nutsedge plant response rating: 0
[9]; Rate 250 g/ha, Postemergence
  Plant response rating, Nutsedge: 0
[9]; Rate 250 g/ha, Preemergence
  Plant response rating, Nutsedge: 0
Rape (Brassica napus); Rate 62 g/ha, Postemergence
  Plant response rating, Rape: 2
Rape (Brassica napus); Rate 62 g/ha, Preemergence
  Rape plant response rating: 0
Rape (Brassica napus); Rate 125 g/ha, Postemergence
  Plant response rating, Rape: 2
Rape (Brassica napus); Rate 125 g/ha, Preemergence
  Rape plant response rating: 0
Rape (Brassica napus); Rate 250 g/ha, Postemergence
  Plant response rating, Rape: 3
Rape (Brassica napus); Rate 250 g/ha, Preemergence
  Plant response rating, Rape: 0
[10]; Rate 62 g/ha, Postemergence
  Plant response rating, Crabgrass: 1
[10]; Rate 62 g/ha, Preemergence
  Crabgrass plant response rating: 0
[10]; Rate 125 g/ha, Postemergence
  Plant response rating, Crabgrass: 2
[10]; Rate 125 g/ha, Preemergence
  Crabgrass plant response rating: 0
[10]; Rate 250 g/ha, Postemergence
  Plant response rating, Crabgrass: 2
[10]; Rate 250 g/ha, Preemergence
  Plant response rating, Crabgrass: 0
[11]; Rate 62 g/ha, Postemergence
  Plant response rating, Giant foxtail: 0
[11]; Rate 62 g/ha, Preemergence
  Giant foxtail plant response rating: 0
[11]; Rate 125 g/ha, Postemergence
  Plant response rating, Giant foxtail: 0
[11]; Rate 125 g/ha, Preemergence
  Giant foxtail plant response rating: 0
[11]; Rate 250 g/ha, Postemergence
  Plant response rating, Giant foxtail: 1
[11]; Rate 250 g/ha, Preemergence
  Plant response rating, Giant foxtail: 0
Wild oat (Avena fatua); Rate 62 g/ha, Postemergence
  Plant response rating, Wild oats: 0
Wild oat (Avena fatua); Rate 62 g/ha, Preemergence
  Wild oats plant response rating: 0
Wild oat (Avena fatua); Rate 125 g/ha, Postemergence
  Plant response rating, Wild oats: 1
Wild oat (Avena fatua); Rate 125 g/ha, Preemergence
  Wild oats plant response rating: 0
Wild oat (Avena fatua); Rate 250 g/ha, Postemergence
  Plant response rating, Wild oats: 2
Wild oat (Avena fatua); Rate 250 g/ha, Preemergence
  Plant response rating, Wild oats: 0
[12]; Rate 62 g/ha, Postemergence
  Plant response rating, Redroot pigweed: 2
[12]; Rate 62 g/ha, Preemergence
  Redroot pigweed plant response rating: 0
[12]; Rate 125 g/ha, Postemergence
  Plant response rating, Redroot pigweed: 5
[12]; Rate 125 g/ha, Preemergence
  Redroot pigweed plant response rating: 0
[12]; Rate 250 g/ha, Postemergence
  Plant response rating, Redroot pigweed: 7
[12]; Rate 250 g/ha, Preemergence
  Plant response rating, Redroot pigweed: 0
[13]; Rate 62 g/ha, Postemergence
  Plant response rating, Morningglory: 3
[13]; Rate 62 g/ha, Preemergence
  Morningglory plant response rating: 0
[13]; Rate 125 g/ha, Postemergence
  Plant response rating, Morningglory: 3
[13]; Rate 125 g/ha, Preemergence
  Morningglory plant response rating: 0
[13]; Rate 250 g/ha, Postemergence
  Plant response rating, Morningglory: 6
[13]; Rate 250 g/ha, Preemergence
  Plant response rating, Morningglory: 0
[14]; Rate 62 g/ha, Postemergence
  Plant response rating, Bedstraw: 2
[14]; Rate 62 g/ha, Preemergence
  Bedstraw plant response rating: 0
[14]; Rate 125 g/ha, Postemergence
  Plant response rating, Bedstraw: 3
[14]; Rate 125 g/ha, Preemergence
  Bedstraw plant response rating: 0
[14]; Rate 250 g/ha, Postemergence
  Plant response rating, Bedstraw: 3
[14]; Rate 250 g/ha, Preemergence
  Plant response rating, Bedstraw: 0
[15]; Rate 62 g/ha, Postemergence
  Plant response rating, Sugarbeets: 2
[15]; Rate 62 g/ha, Preemergence
  Sugarbeets plant response rating: 0
[15]; Rate 125 g/ha, Postemergence
  Plant response rating, Sugarbeets: 4
[15]; Rate 125 g/ha, Preemergence
  Sugarbeets plant response rating: 0
[15]; Rate 250 g/ha, Postemergence
  Plant response rating, Sugarbeets: 6
[15]; Rate 250 g/ha, Preemergence
  Plant response rating, Sugarbeets: 0
